Laboratory results from patent publication US10028966B2 (Avalyn Pharma Inc., priority 2014, dated 2018).
Like-named read-outs stand apart in the source and are kept apart here. Marks after values point to notes of the source that are not given here.

Key:
[1] = Stability assessment of pirfenidone formulations at 25°C/60% RH and 40°C/75% RH; type: physicochemical; conditions: time zero
[2] = Osmolality determination and nebulization for taste testing, throat irritation and cough response; conditions: for Cough Response? / Throat Irritation?: nebulized
Description: Selected formulations were subjected to osmolality determination and nebulization for taste testing and throat irritation and or cough response.

[3] = Intravenous push of pirfenidone, plasma and lung levels; type: in vivo; conditions: mouse
CYP2C9 = molecular target: T1, CYP2C9 (Homo sapiens, UniProt P11712); conditions: hepatic microsomes; cited from earlier work
T1 construct: In vitro metabolism studies with hepatic microsomes; from tissue; host or cells: hepatic microsomes

[4] = 85% saturation pirfenidone formulations exposed to several temperatures (re-crystallization); type: physicochemical
Description: However, in all cases pirfenidone eventually re-crystallized. This re-crystallization was not inhibited by pre-filtration of the sample.

2E1 = molecular target: T2, 2E1 (Homo sapiens, UniProt P05181); conditions: hepatic microsomes; cited from earlier work
T2 construct: In vitro metabolism studies with hepatic microsomes; from tissue; host or cells: hepatic microsomes

[5] = Pharmacokinetics and lung-tissue distribution after oral gavage or intratracheal aerosol; type: in vivo, Sprague-Dawley rats; conditions: for half-life: po, 70 mg/kg
Protocol: Solutions were vortexed until all crystals dissolved. […] Plasma samples were taken at pre-dose, 0.08, 0.16, 0.25, 0.5, 0.75, 1.0, 1.5, 2, 4, and 6 hours post dosing. For lung tissue samples, eight additional rats were also dosed 70 mg/kg by the oral route. Lungs were taken at pre-dose 0.08, 0.5, 2, and 4 hours post dosing. Materials were extracted and pirfenidone quantitated as μg/mL plasma and μg/gram lung tissue. […]

2C19 = molecular target: T3, 2C19 (Homo sapiens, UniProt P33261); conditions: hepatic microsomes; cited from earlier work
T3 construct: In vitro metabolism studies with hepatic microsomes; from tissue; host or cells: hepatic microsomes

[6] = Pharmacokinetics and lung-tissue distribution after oral gavage or intratracheal aerosol; type: in vivo, Sprague-Dawley rats; conditions: for half-life / Cmax / AUC(0-t): Sprague-Dawley, rat, inhaled or intranasal; for AUC(0-t): read-out: Plasma AUC0-6 hrs; for Lung Cmax: immediate post-dose calculated from direct-lung delivered dose
[7] = target 38 mg/mL, 5 mM phosphate buffer pH 6.5 plus 8% (v/v) EtOH, 16% (v/v) PG
[8] = 43.7 mg/mL pirfenidone, 8% EtOH, 16% PG, 0 mM sodium saccharin, 76% phosphate buffer (5 mM), pH 7.0
[9] = 43.7 mg/mL pirfenidone, 8% EtOH, 16% PG, 0.3 mM sodium saccharin, 76% phosphate buffer (5 mM), pH 7.0
[10] = 27.2 mg/mL pirfenidone, 4% EtOH, 8% PG, 88% phosphate buffer (5 mM), pH 6.6
[11] = 34.7 mg/mL pirfenidone, 6% EtOH, 12% PG, 82% phosphate buffer (5 mM), pH 7.0

T1 sequence (P11712 whole entry): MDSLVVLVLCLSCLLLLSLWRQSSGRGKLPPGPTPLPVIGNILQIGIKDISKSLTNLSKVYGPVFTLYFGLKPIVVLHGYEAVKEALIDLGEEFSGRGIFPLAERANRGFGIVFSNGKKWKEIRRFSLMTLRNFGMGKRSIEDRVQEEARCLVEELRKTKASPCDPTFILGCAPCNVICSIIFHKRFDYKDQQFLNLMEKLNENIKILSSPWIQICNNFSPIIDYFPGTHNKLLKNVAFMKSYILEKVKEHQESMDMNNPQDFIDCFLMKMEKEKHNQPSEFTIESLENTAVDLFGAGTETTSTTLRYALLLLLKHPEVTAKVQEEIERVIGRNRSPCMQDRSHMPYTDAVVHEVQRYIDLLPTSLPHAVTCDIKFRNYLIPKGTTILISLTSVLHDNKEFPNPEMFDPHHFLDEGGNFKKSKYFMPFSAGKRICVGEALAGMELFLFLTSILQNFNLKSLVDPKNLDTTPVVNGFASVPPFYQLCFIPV
T2 sequence (P05181 whole entry): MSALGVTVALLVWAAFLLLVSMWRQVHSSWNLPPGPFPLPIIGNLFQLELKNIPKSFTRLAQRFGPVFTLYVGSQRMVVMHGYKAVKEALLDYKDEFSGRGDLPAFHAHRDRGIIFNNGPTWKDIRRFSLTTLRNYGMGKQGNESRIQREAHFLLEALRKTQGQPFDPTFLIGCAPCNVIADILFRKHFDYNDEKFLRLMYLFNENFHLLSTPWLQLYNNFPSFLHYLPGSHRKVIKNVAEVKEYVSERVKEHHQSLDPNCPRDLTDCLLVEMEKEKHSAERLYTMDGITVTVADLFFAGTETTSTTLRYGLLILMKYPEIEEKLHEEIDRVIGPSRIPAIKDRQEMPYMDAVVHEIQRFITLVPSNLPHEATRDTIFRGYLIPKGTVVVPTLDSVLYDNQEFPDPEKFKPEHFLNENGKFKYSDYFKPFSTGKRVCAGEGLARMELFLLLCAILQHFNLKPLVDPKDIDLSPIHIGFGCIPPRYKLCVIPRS
T3 sequence (P33261 whole entry): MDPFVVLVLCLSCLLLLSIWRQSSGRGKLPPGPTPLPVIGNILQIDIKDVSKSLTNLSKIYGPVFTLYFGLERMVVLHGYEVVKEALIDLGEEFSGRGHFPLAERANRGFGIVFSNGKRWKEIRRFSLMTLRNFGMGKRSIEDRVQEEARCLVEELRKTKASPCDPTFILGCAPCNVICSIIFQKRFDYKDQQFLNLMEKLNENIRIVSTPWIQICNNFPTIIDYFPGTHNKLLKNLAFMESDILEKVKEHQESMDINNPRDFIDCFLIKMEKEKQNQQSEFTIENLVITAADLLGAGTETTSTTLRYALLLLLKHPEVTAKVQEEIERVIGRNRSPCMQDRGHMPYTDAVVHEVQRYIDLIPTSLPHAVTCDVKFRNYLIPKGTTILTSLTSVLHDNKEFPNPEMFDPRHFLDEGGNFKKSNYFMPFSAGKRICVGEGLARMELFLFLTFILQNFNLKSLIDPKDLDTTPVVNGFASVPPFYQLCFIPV

With `Cc1ccc(=O)n(-c2ccccc2)c1` [pirfenidone, 5-methyl-1-phenyl-2-(1H)-pyridone] the pH ([1]; target 30 mg/mL, 5 mM phosphate buffer pH 6.5 plus 6% (v/v) EtOH, 12% (v/v) PG) was 6.90, the “Measured Pirfenidone” value [1, 7] was 38.9 mg/mL and the mOsmol/kg [1, 7] was 3750 mOsmol/kg. The pH [1, 7] was 7.04, the Osmolality [2, 8] was 3672 mOsmo/Kg and the Osmolality [2, 9] was 3672 mOsmo/Kg. For the same molecule, the Osmolality ([2]; calculated, 27.2 mg/mL pirfenidone, 4% EtOH, 8% PG, 88% phosphate buffer (5 mM), pH 6.6) was ~1830* mOsmo/Kg, the Osmolality ([2]; calculated, 34.7 mg/mL pirfenidone, 6% EtOH, 12% PG, 82% phosphate buffer (5 mM), pH 7.0) was ~2750* mOsmo/Kg and the “Cough Response?” value [2, 10] was “No”. The “Throat Irritation?” value [2, 10] was “No”, the “Cough Response?” value [2, 11] was “No” and the “Throat Irritation?” value [2, 11] was “No”. For the same molecule, the “Cough Response?” value [2, 8] was “No”, the “Throat Irritation?” value [2, 8] was “No” and the “Cough Response?” value [2, 9] was “No”. The “Throat Irritation?” value [2, 9] was “No”, the “Lung Cmax” value ([3]; 40 mg/kg intravenous dose) was 30 mcg/gram wet tissue and the “pirfenidone in the lung tissue after subtracting blood content” value ([3]; 40 mg/kg intravenous dose, blood assumed 40% of wet lung weight) was “about 8 mcg/g”. The “wet lung half-life, longer than the plasma half-life” value ([3]; intravenous push) was “about 45%”, the Cmax ([3]; plasma, 40 mg/kg intravenous dose) was roughly 55000 ng/mL and the “contribution to pirfenidone metabolism” value (CYP2C9) was “less than 13%”. For the same molecule, the Recrystallization upon storage ([4]; overnight at 4° C., 23.0 mg/mL (85% saturation), 4% EtOH, 8% PG, 88% phosphate buffer (5 mM), pH 6.6) was “No”, the Recrystallization upon storage ([4]; overnight at 4° C., 29.5 mg/mL, 6% EtOH, 12% PG, 82% phosphate buffer (5 mM), pH 7.0) was “No” and the Recrystallization upon storage ([4]; overnight at 4° C., […], 8% EtOH, 16% PG, 76% phosphate buffer (5 mM), pH 7.0) was “No”. The Recrystallization upon storage ([4]; overnight at 15° C., 23.0 mg/mL (85% saturation), 4% EtOH, 8% PG, 88% phosphate buffer (5 mM), pH 6.6) was “No”, the Recrystallization upon storage ([4]; overnight at 15° C., 29.5 mg/mL, 6% EtOH, 12% PG, 82% phosphate buffer (5 mM), pH 7.0) was “No” and the Recrystallization upon storage ([4]; overnight at 15° C., […], 8% EtOH, 16% PG, 76% phosphate buffer (5 mM), pH 7.0) was “No”. The Recrystallization upon storage ([4]; overnight at 25° C., 23.0 mg/mL (85% saturation), 4% EtOH, 8% PG, 88% phosphate buffer (5 mM), pH 6.6) was “No”, the Recrystallization upon storage ([4]; overnight at 25° C., 27.2 mg/mL (saturation solubility), 4% EtOH, 8% PG, 88% phosphate buffer (5 mM), pH 6.6) was “Yes” and the Recrystallization upon storage ([4]; overnight at 25° C., 29.5 mg/mL, 6% EtOH, 12% PG, 82% phosphate buffer (5 mM), pH 7.0) was “No”. The Recrystallization upon storage ([4]; overnight at 25° C., 34.7 mg/mL, 6% EtOH, 12% PG, 82% phosphate buffer (5 mM), pH 7.0) was “Yes”, the Recrystallization upon storage ([4]; overnight at 25° C., 43.7 mg/mL, 8% EtOH, 16% PG, 76% phosphate buffer (5 mM), pH 7.0) was “Yes” and the Recrystallization upon storage ([4]; overnight at 25° C., […], 8% EtOH, 16% PG, 76% phosphate buffer (5 mM), pH 7.0) was “No”. The Recrystallization upon storage ([4]; overnight at −20° C., 23.0 mg/mL (85% saturation), 4% EtOH, 8% PG, 88% phosphate buffer (5 mM), pH 6.6, crystals re-dissolved at 25° C. without agitation) was “Yes^f”, the Recrystallization upon storage ([4]; overnight at −20° C., 29.5 mg/mL, 6% EtOH, 12% PG, 82% phosphate buffer (5 mM), pH 7.0, crystals re-dissolved at 25° C. without agitation) was “Yes^f” and the Recrystallization upon storage ([4]; overnight at −20° C., […], 8% EtOH, 16% PG, 76% phosphate buffer (5 mM), pH 7.0, crystals re-dissolved at 25° C. without agitation) was “Yes^f”. For the same molecule, the “contribution to pirfenidone metabolism” value (2E1) was “less than 13%”, the half-life ([5]; Sprague-Dawley, rat, lung, read-out: Lung T1/2 α (only α observed)) was 45 min and the half-life ([5]; Sprague-Dawley, rat, plasma, read-out: Plasma T1/2) was 30 min. For the same molecule, the Cmax ([5]; Sprague-Dawley, rat, plasma, oral 70 mg/kg) was 8100 ng/mL, the AUC(0-t) ([5]; Sprague-Dawley, rat, plasma, oral 70 mg/kg, read-out: Plasma AUC0-6 hrs) was 13500 ng·h/mL and the “Lung Cmax” value ([5]; oral 70 mg/kg) was 3.6 µg/g. For the same molecule, the “Lung TOE, time of exposure over 1 μg/g lung tissue” value (from here on “Lung TOE … over 1 μg/g lung tissue”) ([5]; oral 70 mg/kg) was 89 min, the “contribution to pirfenidone metabolism” value (2C19) was “less than 13%” and the half-life ([6]; lung, 1 mg/kg, aerosol 1 mg/kg, read-out: Lung T1/2 α) was less than 1 min. It also gave a half-life ([6]; lung, 1 mg/kg, aerosol 1 mg/kg, read-out: Lung T1/2 β) of 45 min, a half-life ([6]; lung, 5 mg/kg, aerosol 5 mg/kg, read-out: Lung T1/2 α) of less than 1 min and a half-life ([6]; lung, 5 mg/kg, aerosol 5 mg/kg, read-out: Lung T1/2 β) of 45 min. It also gave a half-life ([6]; plasma, 1 mg/kg, aerosol 1 mg/kg, read-out: Plasma T1/2) of 30 min, a half-life ([6]; plasma, 5 mg/kg, aerosol 5 mg/kg, read-out: Plasma T1/2) of 30 min and a Cmax ([6]; plasma, aerosol 1 mg/kg) of 1100 ng/mL. It also gave an AUC(0-t) ([6]; plasma, aerosol 1 mg/kg) of 900 ng·h/mL, a Cmax ([6]; plasma, aerosol 5 mg/kg) of 7000 ng/mL and an AUC(0-t) ([6]; plasma, aerosol 5 mg/kg) of 4500 ng·h/mL. For the same molecule, the “Lung AUC (for time >1 μg/g)” value ([6]; aerosol 1 mg/kg) was 5.2 mg·h/kg, the “Lung TOE … over 1 μg/g lung tissue” value ([6]; aerosol 1 mg/kg) was 5 min and the “Lung AUC (for time >1 μg/g)” value ([6]; aerosol 5 mg/kg) was 25.4 mg·h/kg. For the same molecule, the “Lung TOE … over 1 μg/g lung tissue” value ([6]; aerosol 5 mg/kg) was 84 min, the “Lung Cmax” value ([6]; aerosol (bolus intratracheal) 1 mg/kg) was 101 µg/g and the “Lung Cmax” value ([6]; aerosol (bolus intratracheal) 5 mg/kg) was 508 µg/g. For the same molecule, the “Lung AUC (for time >1 μg/g)” value ([6]; oral 70 mg/kg) was 4.3 mg·h/kg.
